Here are results for seven molecules from patent US9233078B2, “Nanoparticles comprising a non-ionizable polymer and an Amine-functionalized methacrylate copolymer” (Bend Research, Inc., priority 2007, dated 2016).

In brackets after ≈: the same amount, converted by molar mass.

The nature of series [1]: Aqueous solubility of the drugs. Conditions: water. Format: physicochemical.
A short description of a further series: Log P of Drug 1. Conditions: octanol/water. Format: physicochemical. The text has this: The first property of hydrophobic drugs is that they are extremely hydrophobic. Log P, defined as the base 10 logarithm of the ratio of the drug solubility in octanol to the drug solubility in water, is a widely accepted measure of hydrophobicity. By “extremely hydrophobic” is meant that the Log P value of the drug is at least 4.0, preferably at least 4.5, and most preferably at least 5.0. Log P may be measured experimentally or calculated using methods known in the art. When using a calculated value for Log P, the highest value calculated using any generally accepted method for calculating Log P is used. Calculated Log P values are often referred to by the calculation method, such as Clog P, Alog P, and Mlog P. The Log P may also be estimated using fragmentation methods, such as Crippen's fragmentation method (27 J. Chem. Inf. Comput. Sci. 21 (1987)); Viswanadhan's fragmentation method (29 J. Chem. Inf. Comput. Sci. 163 (1989)); or Broto's fragmentation method (19 Eur. J. Med. Chem.-Chim. Theor. 71 (1984). Preferably the Log P value is calculated by using the average value estimated using Crippen's, Viswanadhan's, and Broto's fragmentation methods.

The nature of series [2]: Free drug analysis, 100,000-dalton cutoff filtration and HPLC. Format: physicochemical. As to conditions: 2.5 mgA/mL suspension in deionized water with dextrose, about 300 mOsm. The method, then: The suspension was filtered using a centrifuge tube filter with a 100,000-dalton molecular-weight cutoff. The filtrate solution was assayed by high-performance liquid chromatography (HPLC).

The conditions of series [3]: for Observations: pH 6.5. The procedure: The polymer is a poorly aqueous soluble non-ionizable polymer. […] An appropriate PBS solution is an aqueous solution comprising 20 mM sodium phosphate (Na2HPO4), 47 mM potassium phosphate (KH2PO4), 87 mM NaCl, and 0.2 mM KCl, adjusted to pH 6.5 with NaOH. A test to determine whether the polymer is poorly aqueous soluble may be performed as follows. The polymer is initially present in bulk powder form with average particle sizes of greater than about 1 micron. The polymer alone is administered at a concentration of 0.2 mg/mL to the PBS solution and stirred for approximately 1 hour at room temperature. Next, a nylon 0.45 μm filter is weighed, and the polymer solution is filtered. The filter is dried overnight at 40° C., and weighed the following morning. The amount of polymer dissolved is calculated from the amount of polymer added to the PBS solution minus the amount of polymer remaining on the filter (mg). […] First, 0.2 mg/mL of the polymer was added to a PBS solution consisting of 20 mM Na2HPO4, 47 mM KH2PO4, 87 mM NaCl, and 0.2 mM KCl, adjusted to pH 6.5 with NaOH. The polymer was stirred in the PBS solution for approximately 1 hour at room temperature. Next, the polymer solution was filtered through a nylon 0.45 μm filter that was weighed dry prior to filtration. The filter was dried overnight at 40° C., and weighed the following morning. The amount of soluble polymer was calculated from the amount of polymer added to form the polymer solution minus the amount of polymer remaining on the filter.

For `CC[C@@H]1C[C@H](N(Cc2cc(C(F)(F)F)cc(C(F)(F)F)c2)C(C)=O)c2cc(C(F)(F)F)ccc2N1C(=O)OC(C)C` [Drug 2, [2R,4S] 4-[acetyl-(3,5-bis-trifluoromethyl-benzyl)-amino]-2-ethyl-6-trifluoromethyl-3,4-dihydro-2H-quinoline-1-carboxylic acid isopropyl ester], in series [1], the solubility is under 1 µg/mL.
`CCNC1CN(CCCOC)S(=O)(=O)c2sc(S(N)(=O)=O)cc21` (centres unmarked) [Drug 5, brinzolamide, reference compound] showed a solubility in series [1] of about 490 µg/mL (≈ 1280 µM).
In “Log P of Drug 1”, `Cc1onc(-c2ccccc2)c1-c1ccc(S(N)(=O)=O)cc1` [Drug 1, 4-(5-methyl-3-phenyl-4-isoxazolyl) benzenesulfonamide] registered a logP of about 3. Moreover, in series [2], the “Free Drug” value came out at 11 µg/mL. Further, the solubility in series [1] is about 10 µg/mL (≈ 31.8 µM).
The molecule `COCCN(C)Cc1nc(Cc2cccc(C)c2)n(-c2ccc(S(N)(=O)=O)cc2F)n1` [Drug 4] gave a solubility in series [1] of about 740 µg/mL (≈ 1650 µM).
With cellulose triacetate, in series [3], the “Amount Soluble at pH 6.5” value is on record as under 0.001 mg/mL and the Observations entry is recorded as “Fine particle”.
On the same counts, the results for ethylcellulose are under 0.001 mg/mL and “Fine particle”.
Take `Cc1ccc(C)c(Cc2nc(CO)nn2-c2ccc(S(N)(=O)=O)cc2F)c1` [Drug 3]: in series [1], the solubility was about 650 µg/mL (≈ 1660 µM).

In general, solubility refers to the dissolved amount per volume that the medium holds. Read a low solubility as little dissolved substance. Broadly, the logP is a log measure of how a compound divides between an organic and an aqueous phase. The low end stands for a more hydrophilic compound, the high end for a more lipophilic compound.
